≈ marks a conversion by molar mass, not a printed value. Like-named read-outs stand apart in the source and are kept apart here.
What was measured:
T. gondii RH-GFP [1] = tested on: T. gondii RH-GFP; design: method as in PMID 31022878, PMID 30744161; conditions: thiosemicarbazides 1a–27a, cited from earlier work; for SI: CC30/IC50Tg; for IC50Tg: T. gondii infected Hs27 cells
[2] = tested on: mouse fibroblasts L929 cells; design: method as in PMID 31022878, PMID 30744161; conditions: thiosemicarbazides 1a–27a; cited from earlier work
[3] = tested on: mouse fibroblasts L929 cells; assay: Cell viability assay (MTT, ISO 10993-5); format: cell-based; conditions: 24 h, highest dilution causing 30% or higher destruction of cells
Description: Culture medium RPMI 1640, without phenol red (Biowest, Nuaille, France) supplemented with 10% FBS, 2 mM […] penicillin, 100 μg/mL streptomycin were used. Briefly, 1 × 10^4/well of L929 cells were placed in 96-well plates and incubated for 24 h at 37 °C and 10% CO2. Afterwards, the old culture medium was replaced with 100 μL of the compound, drug or inhibitor, diluted in culture medium and the cells treated for 24 h. Additionally, cells were treated with 0.03-4.0% concentration of DMSO as the solvent (data not shown). Then, 50 μL of 1 mg/mL of MTT solution in RPMI 1640 without phenol red was added to each well and incubated for 2 h at 37 °C and 10% CO2. Next, cell culture medium was aspirated carefully and 150 μL of DMSO was added to each well, and the plates were gently mixed. Then, 25 μL 0.1 M glycine buffer (pH 10.5) (Sigma-Aldrich) was added. The optical density at 570 nm using a multi-mode microplate reader SpectraMax® i3 (Syngen, Taipei City, Taiwan) was recorded. The results were expressed as a percentage of viability compared to untreated cells. All experiments were performed in triplicate. The reported methyl thiazolyltetrazole (MTT) method was used to study in vitro cytotoxic profile of the s-triazoles 1b-27b to the host cells (L929). Experiments were performed in accordance with the international standard IS0-10993-5:2009. […] The data for acyclic precursors 1a-27a are also included for comparison[39]^,[40].

T. gondii RH-GFP [4] = assay: Antiparasitic assay: T. gondii RH-GFP proliferation in Hs27 cells; format: cell-based, Toxoplasma gondii; conditions: for IC50: Toxoplasma gondii, read-out: IC50Tg; for SI: selectivity index, CC30 (L929)/IC50Tg
[5] = T. gondii RH-GFP in Hs27 cells, 96 h, values above highest tested concentration extrapolated

SMILES	SI (T. gondii RH-GFP [1])	IC50Tg (T. gondii RH-GFP [1])	CC30 [2] [µg/mL]	CC30 [3] [µg/mL]	IC50 (T. gondii RH-GFP [4]; [5]) [µg/mL]	SI (T. gondii RH-GFP [4])	melting point [°C]	IC50 (T. gondii RH-GFP [4]; HS27, 96 h) [µg/mL]
Cc1nc[nH]c1C(=O)NNC(=S)Nc1ccccc1F [1a]	4.21	68.83 µg/mL (≈ 235 µM)	289.6 (≈ 987 µM)					
Cc1nc[nH]c1-c1n[nH]c(=S)n1-c1ccccc1F [1b]				1270.57 (≈ 4620 µM)	220 (≈ 799 µM)	5.78		
Cc1nc[nH]c1C(=O)NNC(=S)Nc1cccc(F)c1 [2a]	1.10	113.45 µg/mL (≈ 387 µM)	125.17 (≈ 427 µM)					
Cc1nc[nH]c1-c1n[nH]c(=S)n1-c1cccc(F)c1 [2b, 4–(3-fluorophenyl)-5–(4-methylimidazol-5-yl)-1,2,4-triazole-3-thione]					103 (≈ 374 µM)	24.26	284	
Cc1nc[nH]c1C(=O)NNC(=S)Nc1ccc(F)cc1 [3a]	2.41	110.31 µg/mL (≈ 376 µM)	266.01 (≈ 907 µM)					
Cc1nc[nH]c1-c1n[nH]c(=S)n1-c1ccc(F)cc1 [3b]				113.71 (≈ 413 µM)	206 (≈ 748 µM)	0.55		
Cc1nc[nH]c1C(=O)NNC(=S)Nc1ccccc1Cl [4a]	4.02	35.61 µg/mL (≈ 115 µM)	143.15 (≈ 462 µM)					
Cc1nc[nH]c1-c1n[nH]c(=S)n1-c1ccccc1Cl [4b, 4–(2-chlorophenyl)-5–(4-methylimidazol-5-yl)-1,2,4-triazole-3-thione]				698.23 (≈ 2390 µM)	345 (≈ 1180 µM)	2.03	243.4	
Cc1nc[nH]c1C(=O)NNC(=S)Nc1cccc(Cl)c1 [5a]		25.70 µg/mL (≈ 83 µM)	96.78 (≈ 312 µM)					
Cc1nc[nH]c1-c1n[nH]c(=S)n1-c1cccc(Cl)c1 [5b, 4–(3-chlorophenyl)-5–(4-methylimidazol-5-yl)-1,2,4-triazole-3-thione]				721.27 (≈ 2470 µM)	310 (≈ 1060 µM)	2.32	297.8	
Cc1nc[nH]c1C(=O)NNC(=S)Nc1ccc(Cl)cc1 [6a]	1.28	73.37 µg/mL (≈ 237 µM)	94.12 (≈ 304 µM)					
Cc1nc[nH]c1-c1n[nH]c(=S)n1-c1ccc(Cl)cc1 [6b, 4–(4-chlorophenyl)-5–(4-methylimidazol-5-yl)-1,2,4-triazole-3-thione]				460.26 (≈ 1580 µM)	267 (≈ 914 µM)	1.73	255.8	
Cc1nc[nH]c1C(=O)NNC(=S)Nc1ccccc1Br [7a]	7.43	27.65 µg/mL (≈ 78.1 µM)	205.31 (≈ 580 µM)					
Cc1nc[nH]c1-c1n[nH]c(=S)n1-c1ccccc1Br [7b, 4–(2-bromophenyl)-5–(4-methylimidazol-5-yl)-1,2,4-triazole-3-thione]				2116.90 (≈ 6300 µM)	66.7 (≈ 199 µM)	31.72	235.6	
Cc1nc[nH]c1C(=O)NNC(=S)Nc1cccc(Br)c1 [8a]	6.15	15.64 µg/mL (≈ 44.2 µM)	96.12 (≈ 271 µM)					
Cc1nc[nH]c1-c1n[nH]c(=S)n1-c1cccc(Br)c1 [8b, 4–(3-bromophenyl)-5–(4-methylimidazol-5-yl)-1,2,4-triazole-3-thione]				660.09 (≈ 1960 µM)	103 (≈ 306 µM)	6.41	299.7	
Cc1nc[nH]c1C(=O)NNC(=S)Nc1ccc(Br)cc1 [9a]	3.36	14.57 µg/mL (≈ 41.1 µM)	48.89 (≈ 138 µM)					
Cc1nc[nH]c1-c1n[nH]c(=S)n1-c1ccc(Br)cc1 [9b, 4–(4-bromophenyl)-5–(4-methylimidazol-5-yl)-1,2,4-triazole-3-thione]				225.58 (≈ 671 µM)	153 (≈ 455 µM)	1.48	265.9	
Cc1nc[nH]c1C(=O)NNC(=S)Nc1ccccc1I [10a]	5.00	20.31 µg/mL (≈ 50.6 µM)	101.58 (≈ 253 µM)					
Cc1nc[nH]c1-c1n[nH]c(=S)n1-c1ccccc1I [10b, 4–(2-iodophenyl)-5–(4-methylimidazol-5-yl)-1,2,4-triazole-3-thione]				1021.41 (≈ 2670 µM)	80.3 (≈ 209 µM)	12.73	297.6	
Cc1nc[nH]c1C(=O)NNC(=S)Nc1cccc(I)c1 [11a]	8.31	10.3 µg/mL (≈ 25.7 µM)	85.57 (≈ 213 µM)					
Cc1nc[nH]c1-c1n[nH]c(=S)n1-c1cccc(I)c1 [11b, 4–(3-iodophenyl)-5–(4-methylimidazol-5-yl)-1,2,4-triazole-3-thione]				625.17 (≈ 1630 µM)	36.4 (≈ 95.1 µM)	17.16	276.5	
Cc1nc[nH]c1C(=O)NNC(=S)Nc1ccc(I)cc1 [12a]	3.25	22.01 µg/mL (≈ 54.9 µM)	71.58 (≈ 178 µM)					

SMILES	SI (T. gondii RH-GFP [1])	IC50Tg (T. gondii RH-GFP [1])	CC30 [2] [µg/mL]	CC30 [3] [µg/mL]	IC50 (T. gondii RH-GFP [4]; [5]) [µg/mL]	SI (T. gondii RH-GFP [4])	melting point [°C]	IC50 (T. gondii RH-GFP [4]; HS27, 96 h) [µg/mL]
Cc1nc[nH]c1C(=O)NNC(=S)Nc1cc(F)ccc1F [13a]	2.95	53.7 µg/mL (≈ 172 µM)	158.49 (≈ 509 µM)					
Cc1nc[nH]c1-c1n[nH]c(=S)n1-c1cc(F)ccc1F [13b, 4–(2,5-difluorophenyl)-5–(4-methylimidazol-5-yl)-1,2,4-triazole-3-thione]					224 (≈ 765 µM)	11.14	253.9	
Cc1ccccc1NC(=S)NNC(=O)c1[nH]cnc1C [14a]	1.92	∼150.31 µg/mL	288.4 (≈ 997 µM)					
Cc1cccc(NC(=S)NNC(=O)c2[nH]cnc2C)c1 [15a]	1.35	37.15 µg/mL (≈ 128 µM)	50.12 (≈ 173 µM)					
Cc1ccc(NC(=S)NNC(=O)c2[nH]cnc2C)cc1 [16a]	0.60	∼57.58 µg/mL	34.67 (≈ 120 µM)					
Cc1ccc(-n2c(-c3[nH]cnc3C)n[nH]c2=S)cc1 [16b]				1113.53 (≈ 4100 µM)	110 (≈ 406 µM)	10.11		
Cc1ccc(NC(=S)NNC(=O)c2[nH]cnc2C)cc1Cl [17a]	1.51	18.62 µg/mL (≈ 57.5 µM)	28.18 (≈ 87 µM)					
COc1ccccc1NC(=S)NNC(=O)c1[nH]cnc1C [18a]	4.17	33.11 µg/mL (≈ 108 µM)	138.04 (≈ 452 µM)					
COc1ccccc1-n1c(-c2[nH]cnc2C)n[nH]c1=S [18b, 4–(2-methoxyphenyl)-5–(4-methylimidazol-5-yl)-1,2,4-triazole-3-thione]					93.2 (≈ 324 µM)		145.2	
COc1cccc(NC(=S)NNC(=O)c2[nH]cnc2C)c1 [19a]	2.08	79.65 µg/mL (≈ 261 µM)	165.96 (≈ 543 µM)					
COc1cccc(-n2c(-c3[nH]cnc3C)n[nH]c2=S)c1 [19b, 4–(3-methoxyphenyl)-5–(4-methylimidazol-5-yl)-1,2,4-triazole-3-thione]					96.8 (≈ 337 µM)		228.8	
COc1ccc(NC(=S)NNC(=O)c2nc[nH]c2C)cc1 [20a]	3.41	113.99 µg/mL (≈ 373 µM)	389.05 (≈ 1270 µM)					
COc1ccc(NC(=S)NNC(=O)c2[nH]cnc2C)cc1OC [21a]		∼174.98 µg/mL	>500					
CCOc1ccc(NC(=S)NNC(=O)c2[nH]cnc2C)cc1 [22a]	5.25	95.28 µg/mL (≈ 298 µM)	500 (≈ 1570 µM)					
CC(=O)c1cccc(NC(=S)NNC(=O)c2[nH]cnc2C)c1 [23a]	2.16	95.50 µg/mL (≈ 301 µM)	206.54 (≈ 651 µM)					
CC(=O)c1cccc(-n2c(-c3[nH]cnc3C)n[nH]c2=S)c1 [23b, 4–(3-acetylphenyl)-5–(4-methylimidazol-5-yl)-1,2,4-triazole-3-thione]					141 (≈ 469 µM)	17.79	151.9	
Cc1nc[nH]c1C(=O)NNC(=S)Nc1c(C(C)C)cccc1C(C)C [24a]	1.95	97.72 µg/mL (≈ 272 µM)	190.55 (≈ 530 µM)					
Cc1nc[nH]c1C(=O)NNC(=S)Nc1ccc(N(C)C)cc1 [25a]	0.68	∼164.70 µg/mL	112.2 (≈ 352 µM)					
CCN(CC)c1ccc(NC(=S)NNC(=O)c2[nH]cnc2C)cc1 [26a]	2.46	25.70 µg/mL (≈ 74.2 µM)	63.1 (≈ 182 µM)					
CCc1nc(N)nc(N)c1-c1ccc(Cl)cc1 [PYR, pyrimethamine]				11.37 (≈ 45.7 µM)	1.79 (≈ 7.2 µM)	6.34		
Nc1ccc(S(=O)(=O)Nc2ncccn2)cc1 [SDZ, sulfadiazine]				2161.72 (≈ 8640 µM)		0.44		4860 (≈ 19400 µM)
COc1cc(Cc2cnc(N)nc2N)cc(OC)c1OC [TRI, trimethoprim, reference compound]				336.20 (≈ 1160 µM)		16.07		20.9 (≈ 72.1 µM)
